Converted amounts (≈) assume the structure as drawn.
Assays:
[1] = tested on: Klebsiella pneumoniae KAE; assay: MIC, standard agar-dilution assay; format: cell-based
Escherichia coli TEM = assay: MIC, standard agar-dilution assay; format: cell-based
Streptococcus pneumoniae = Streptococcus pneumoniae infection in mice; two doses, administered subcutaneously
Staphylococcus aureus = Staphylococcus aureus infection in mice; two doses, administered subcutaneously
[2] = tested on: Staphylococcus aureus S13E; format: cell-based; conditions: agar dilution
[3] = tested on: Streptococcus pneumoniae Park 1; format: cell-based; conditions: agar dilution
[4] = tested on: Streptococcus sp. group D 2041; assay: MIC, standard agar-dilution assay; format: cell-based
Escherichia coli N10 = assay: MIC, standard agar-dilution assay; format: cell-based
Streptococcus pyogenes = Streptococcus pyogenes infection in mice; two doses, administered subcutaneously
[5] = tested on: Staphylococcus aureus V41; assay: MIC, standard agar-dilution assay; format: cell-based
[6] = tested on: Haemophilus influenzae C.L.; assay: MIC, standard agar-dilution assay; format: cell-based
[7] = tested on: Klebsiella pneumoniae X68; assay: MIC, standard agar-dilution assay; format: cell-based
[8] = tested on: Haemophilus influenzae 76; assay: MIC, standard agar-dilution assay; format: cell-based
[9] = tested on: Staphylococcus aureus NRRL B313; conditions: agar dilution
[10] = tested on: Staphylococcus epidermidis EPI1; format: cell-based; conditions: agar dilution
[11] = tested on: Klebsiella pneumoniae X26; assay: MIC, standard agar-dilution assay; format: cell-based
Escherichia coli EC14 = assay: MIC, standard agar-dilution assay; format: cell-based
[12] = tested on: Staphylococcus epidermidis 222; assay: MIC, standard agar-dilution assay; format: cell-based
[13] = tested on: Staphylococcus aureus X400; assay: MIC, standard agar-dilution assay; format: cell-based
[14] = tested on: Streptococcus pyogenes C203; assay: MIC, standard agar-dilution assay; format: cell-based
[15] = tested on: Streptococcus faecium ATCC 9790; assay: MIC, standard agar-dilution assay; format: cell-based

SMILES: CCCCCCCCCCN(C)C(CC(C)C)C(=O)NC1C(=O)NC(CC(N)=O)C(=O)NC2C(=O)NC3C(=O)NC(C(=O)NC(C(=O)O)c4cc(O)cc(O)c4-c4cc3ccc4O)C(O)c3ccc(c(Cl)c3)Oc3cc2cc(c3OC2OC(CO)C(O)C(O)C2OC2CC(C)(N)C(O)C(C)O2)Oc2ccc(cc2Cl)C1O (stereo not drawn) [Compound 3, N^leu --(n-decyl)vancomycin]
- MIC [1]: > 128 µg/mL
- MIC (Escherichia coli TEM): > 128 µg/mL
- ED50 (Streptococcus pneumoniae): 3.6 mg/kg/2
- ED50 (Staphylococcus aureus): > 5 mg/kg/2
- MIC [2]: 0.5 µg/mL (≈ 0.315 µM)
- MIC [3]: 0.5 µg/mL (≈ 0.315 µM)
- MIC [4]: 1 µg/mL (≈ 0.629 µM)
- MIC (Escherichia coli N10): > 128 µg/mL
- ED50 (Streptococcus pyogenes): 4.6 mg/kg/2
- MIC [5]: 0.5 µg/mL (≈ 0.315 µM)
- MIC [6]: 128 µg/mL (≈ 80.5 µM)
- MIC [7]: > 128 µg/mL
- MIC [8]: > 128 µg/mL
- MIC [9]: 0.5 µg/mL (≈ 0.315 µM)
- MIC [10]: 2 µg/mL (≈ 1.26 µM)
- MIC [11]: > 128 µg/mL
- MIC (Escherichia coli EC14): > 128 µg/mL
- MIC [12]: 1 µg/mL (≈ 0.629 µM)
- MIC [13]: 0.5 µg/mL (≈ 0.315 µM)
- MIC [14]: 0.5 µg/mL (≈ 0.315 µM)
- MIC [15]: 0.5 µg/mL (≈ 0.315 µM)

SMILES: CCCCCCCCN(C)C(CC(C)C)C(=O)NC1C(=O)NC(CC(N)=O)C(=O)NC2C(=O)NC3C(=O)NC(C(=O)NC(C(=O)O)c4cc(O)cc(O)c4-c4cc3ccc4O)C(O)c3ccc(c(Cl)c3)Oc3cc2cc(c3OC2OC(CO)C(O)C(O)C2OC2CC(C)(N)C(O)C(C)O2)Oc2ccc(cc2Cl)C1O (stereo not drawn) [Compound 8, N^leu --(n-octyl)vancomycin]
- MIC [1]: > 128 µg/mL
- MIC (Escherichia coli TEM): > 128 µg/mL
- ED50 (Streptococcus pneumoniae): 3.1 mg/kg/2
- ED50 (Staphylococcus aureus): > 5 mg/kg/2
- MIC [2]: 1 µg/mL (≈ 0.64 µM)
- MIC [3]: 1 µg/mL (≈ 0.64 µM)
- MIC [4]: 2 µg/mL (≈ 1.28 µM)
- MIC (Escherichia coli N10): > 128 µg/mL
- ED50 (Streptococcus pyogenes): 3.7 mg/kg/2
- MIC [5]: 0.5 µg/mL (≈ 0.32 µM)
- MIC [6]: 128 µg/mL (≈ 82 µM)
- MIC [7]: > 128 µg/mL
- MIC [8]: 128 µg/mL (≈ 82 µM)
- MIC [9]: 0.5 µg/mL (≈ 0.32 µM)
- MIC [10]: 2 µg/mL (≈ 1.28 µM)
- MIC [11]: > 128 µg/mL
- MIC (Escherichia coli EC14): > 128 µg/mL
- MIC [12]: 1 µg/mL (≈ 0.64 µM)
- MIC [13]: 1 µg/mL (≈ 0.64 µM)
- MIC [14]: 0.5 µg/mL (≈ 0.32 µM)
- MIC [15]: 1 µg/mL (≈ 0.64 µM)
